pIC50: −log10 of the molar value. Like-named read-outs stand apart in the source and are kept apart here.
How the values were obtained:
SARS-CoV-2 (Wuhan) = test: microbe, parasite or virus in culture; type: cell-based; details: Severe acute respiratory syndrome coronavirus 2, Vero C1008
Vero E6 cells = details: for % viable cells: not infected Vero E6 cells

SMILES: O=C(c1ccc(OCCN2CCCCC2)cc1)c1c(-c2ccc(O)cc2)sc2cc(O)ccc12 [Raloxifene, 1-[6-hydroxy-2-(4-hydroxyphenyl)benzo[b]thien-3-yl]-1-[4-[2-(1-piperidinyl)ethoxy]phenyl]methanone]
- pIC50 (SARS-CoV-2 (Wuhan)): 5.23
- % viable cells (Vero E6 cells; Raloxifene 0.23 μM, 48 h): 100%
- % viable cells (Vero E6 cells; Raloxifene 0.23 μM, 72 h): 102%
- % viable cells (Vero E6 cells; Raloxifene 0.46 μM, 48 h): 95%
- % viable cells (Vero E6 cells; Raloxifene 0.46 μM, 72 h): 95%
- % viable cells (Vero E6 cells; Raloxifene 0.94 μM, 48 h): 95%
- % viable cells (Vero E6 cells; Raloxifene 0.94 μM, 72 h): 96%
- % viable cells (Vero E6 cells; Raloxifene 1.87 μM, 48 h): 99%
- % viable cells (Vero E6 cells; Raloxifene 1.87 μM, 72 h): 97%
- % viable cells (Vero E6 cells; Raloxifene 3.75 μM, 48 h): 93%
- % viable cells (Vero E6 cells; Raloxifene 3.75 μM, 72 h): 96%
- % viable cells (Vero E6 cells; Raloxifene 7.5 μM, 48 h): 92%
- % viable cells (Vero E6 cells; Raloxifene 7.5 μM, 72 h): 97%
- % viable cells (Vero E6 cells; Raloxifene 15 μM, 48 h): 86%
- % viable cells (Vero E6 cells; Raloxifene 15 μM, 72 h): 76%
- effect on cell viability (Vero E6 cells; Raloxifene 15 μM, crystal violet staining): reduced percentage of viable cells
- effect on cell viability (Vero E6 cells; lower drug concentrations (7.5 to 0.23 μM)): No significant effect on cell viability

Source: patent US20240342150A1 (priority 2021, published 2024)
